Reference: patent US20160108027A1, “SUBSTITUTED BENZOXAZOLES” (BAYER PHARMA AKTIENGESELLSCHAFT, priority 2013, published 2016)

Columns and labels:
thrombin [1] = target: T1, thrombin (Homo sapiens, UniProt P00734); assay: Measurement of the thrombin inhibition in buffer; type: biochemical; conditions: human thrombin 0.06 nmol/l in Tris buffer pH 7.4, 22° C., substrate Boc-Asp(OBzl)-Pro-Arg-AMC; in some cases means of individual determinations
Description: To determine the thrombin inhibition of the substances listed above, a biochemical test system is constructed in which the conversion of a thrombin substrate is used for determining the enzymatic activity of human thrombin. Here, thrombin cleaves aminomethylcoumarin, which is measured fluorescently, from the peptic substrate. The determinations are carried out in microtitre plates.
Substances to be tested are dissolved in various concentrations in dimethyl sulphoxide and incubated for 15 min with human thrombin (0.06 nmol/l dissolved in 50 mmol/l of Tris buffer [C,C,C-tris(hydroxymethyl)aminomethane], 100 mmol/l of sodium chloride, 0.1% BSA [bovine serum albumin], pH 7.4) at 22° C. The substrate (5 μmol/l Boc-Asp(OBzl)-Pro-Arg-AMC from Bachem) is then added. After 30 min of incubation, the sample is excited at a wavelength of 360 nm and the emission is measured at 460 nm. The measured emissions of the test mixtures with test substance are compared to the control mixtures without test substance (only dimethyl sulphoxide instead of test substance in dimethyl sulphoxide) and IC50 values are calculated from the concentration/activity relationships. Representative activity data from this test are given in Table 1 below (in some cases as means of individual determinations): […]

thrombin [2] = target: T1, thrombin; assay: Determination of the thrombin-inhibitory activity in plasma samples (ecarin-activated); type: biochemical; conditions: citrate plasma, ecarin activation, fluorogenic thrombin substrate; in some cases means of individual determinations
Description: To determine the inhibition of thrombin in plasma samples, plasma […] is activated by ecarin. Thrombin activity and/or its inhibition by potential inhibitors is/are then measured fluorenscently by addition of a substrate.
The substances to be tested are dissolved in various concentrations in dimethyl sulphoxide and diluted with water. In white 96-well flat-bottomed plates, 20 μl of substance dilution are mixed with 20 μl of ecarin solution (ecarin reagent, from Sigma E-0504, final concentration 20 mU per reaction) in Ca buffer (200 mM Hepes+560 mM sodium chloride+10 mM calcium chloride+0.4% PEG) or with 20 μl of Ca buffer (as unstimulated control). Furthermore, 20 μl of fluorogenic thrombin substrate (from Bachem 1-1120, final concentration 50 μmol/1) and 20 μl of citrate plasma (from Octapharma) are added, and the mixture is homogenized well. The plate is measured in a SpectraFluorplus Reader using a 360 nm excitation filter and a 465 nm emission filter every minute over 20 minutes. […] Representative activity data from this test are given in Table 2 below (in some cases as means of individual determinations): […]

COc1cc(C(=O)N2CCCC2(C)C(=O)N2CC(F)C2)cc2nc(NCc3cc(Cl)ccn3)oc12 (single isomer, unassigned) [Example 17, (2-{[(4-Chloropyridin-2-yl)methyl]amino}-7-methoxy-1,3-benzoxazol-5-yl){2-[(3-fluoroazetidin-1-yl)carbonyl]-2-methylpyrrolidin-1-yl}methanone]
IC50 (thrombin [1]): 33 nM
IC50 (thrombin [2]): 52 nM

COc1cc(C(=O)N2CCCC2(C)C(=O)N2CCOCC2)cc2nc(NCc3cc(Cl)ccn3)oc12 (single isomer, unassigned) [Example 18, (2-{[(4-Chloropyridin-2-yl)methyl]amino}-7-methoxy-1,3-benzoxazol-5-yl) [2-methyl-2-(morpholin-4-ylcarbonyl)pyrrolidin-1-yl]methanone]
IC50 (thrombin [1]): 17 nM
IC50 (thrombin [2]): 27 nM

COc1cc(C(=O)N2CC(C)OCC2(C)CO)cc2nc(NCc3cc(Cl)ccn3)oc12 (single isomer, unassigned) [Example 19, (2-{[(4-Chloropyridin-2-yl)methyl]amino}-7-methoxy-1,3-benzoxazol-5-yl) [5-(hydroxymethyl)-2,5-dimethylmorpholin-4-yl]methanone]
IC50 (thrombin [1]): 34 nM
IC50 (thrombin [2]): 53 nM

COc1cc(C(=O)N2CC(C)OCC2(C)CO)cc2nc(NCc3cc(Cl)ccn3)oc12 (single isomer, unassigned) [Example 20, (2-{[(4-Chloropyridin-2-yl)methyl]amino}-7-methoxy-1,3-benzoxazol-5-yl) [5-(hydroxymethyl)-2,5-dimethylmorpholin-4-yl]methanone]
IC50 (thrombin [1]): 36 nM
IC50 (thrombin [2]): 66 nM

COc1cc(C(=O)N2CC(C)(CC(C)O)OCC2CF)cc2nc(NCc3cc(Cl)ccn3)oc12 (single isomer, unassigned) [Example 23, (2-{[(4-Chloropyridin-2-yl)methyl]amino}-7-methoxy-1,3-benzoxazol-5-yl) [5-(fluoromethyl)-2-(2-hydroxypropyl)-2-methylmorpholin-4-yl]methanone]
IC50 (thrombin [1]): 0.8 nM
IC50 (thrombin [2]): 6.5 nM

COc1cc(C(=O)N2CC(C)(CCO)OC[C@H]2C)cc2nc(NCc3cc(Cl)ccn3)oc12 (single isomer, unassigned) [Example 24]
IC50 (thrombin [1]): 2.5 nM
IC50 (thrombin [2]): 12 nM

COc1cc(C(=O)N2CC(C)(CC(C)O)OC[C@H]2C)cc2nc(NCc3cc(Cl)ccn3)oc12 (single isomer, unassigned) [Example 25]
IC50 (thrombin [1]): 1 nM
IC50 (thrombin [2]): 6.8 nM

COc1cc(C(=O)N2CC(C)(CC(C)O)OC[C@H]2C)cc2nc(NC(C)c3cc(Cl)ccn3)oc12 (single isomer, unassigned) [Example 27]
IC50 (thrombin [1]): 2.1 nM
IC50 (thrombin [2]): 7.6 nM

CC[C@@H]1COC(C)(CCO)CN1C(=O)c1cc(OC)c2oc(NCc3cc(Cl)ccn3)nc2c1 (single isomer, unassigned) [Example 29]
IC50 (thrombin [1]): 1.9 nM
IC50 (thrombin [2]): 8.8 nM

COCC1COC(C)(CCO)CN1C(=O)c1cc(OC)c2oc(NCc3cc(Cl)ccn3)nc2c1 (single isomer, unassigned) [Example 31]
IC50 (thrombin [1]): 11 nM
IC50 (thrombin [2]): 34 nM

COc1cc(C(=O)N2CC(C)(CCO)OCC2(C)C)cc2nc(NCc3cc(Cl)ccn3)oc12 (single isomer, unassigned) [Example 33, (2-{[(4-Chloropyridin-2-yl)methyl]amino}-7-methoxy-1,3-benzoxazol-5-yl) [2-(2-hydroxyethyl)-2,5,5-trimethylmorpholin-4-yl]methanone]
IC50 (thrombin [1]): 7.2 nM
IC50 (thrombin [2]): 14 nM

COc1cc(C(=O)N2CC(C)(CC(C)O)OCC2(C)C)cc2nc(NCc3cc(Cl)ccn3)oc12 (single isomer, unassigned) [Example 35, (2-{[(4-Chloropyridin-2-yl)methyl]amino}-7-methoxy-1,3-benzoxazol-5-yl) [2-(2-hydroxypropyl)-2,5,5-trimethylmorpholin-4-yl]methanone]
IC50 (thrombin [1]): 5 nM
IC50 (thrombin [2]): 71 nM

COc1cc(C(=O)N2CC(C)OCC2C(C)(C)O)cc2nc(NCc3cc(Cl)ccn3)oc12 (single isomer, unassigned) [Example 36, (2-{[(4-Chloropyridin-2-yl)methyl]amino}-7-methoxy-1,3-benzoxazol-5-yl) [5-(2-hydroxypropan-2-yl)-2-methylmorpholin-4-yl]methanone]
IC50 (thrombin [1]): 39 nM
IC50 (thrombin [2]): 57 nM

COc1cc(C(=O)N2CC(C)OCC2C(C)(C)O)cc2nc(NCc3cc(Cl)ccn3)oc12 (single isomer, unassigned) [Example 37, (2-{[(4-Chloropyridin-2-yl)methyl]amino}-7-methoxy-1,3-benzoxazol-5-yl) [5-(2-hydroxypropan-2-yl)-2-methylmorpholin-4-yl]methanone]
IC50 (thrombin [1]): 37 nM
IC50 (thrombin [2]): 44 nM

COc1cc(C(=O)N2CC(C)(C)OCC2(C)CO)cc2nc(NCc3cc(Cl)ccn3)oc12 (single isomer, unassigned) [Example 39, (2-{[(4-Chloropyridin-2-yl)methyl]amino}-7-methoxy-1,3-benzoxazol-5-yl) [5-(hydroxymethyl)-2,2,5-trimethylmorpholin-4-yl]methanone]
IC50 (thrombin [1]): 11 nM
IC50 (thrombin [2]): 40 nM

COc1cc(C(=O)N2CC(C)(C)OCC2(C)CO)cc2nc(NCc3cc(Cl)ccn3)oc12 (single isomer, unassigned) [Example 40, (2-{[(4-Chloropyridin-2-yl)methyl]amino}-7-methoxy-1,3-benzoxazol-5-yl) [5-(hydroxymethyl)-2,2,5-trimethylmorpholin-4-yl]methanone]
IC50 (thrombin [1]): 18 nM
IC50 (thrombin [2]): 33 nM

COc1cc(C(=O)N2CC(C)(C)OCC2CF)cc2nc(NCc3cc(Cl)ccn3)oc12 (single isomer, unassigned) [Example 43, (2-{[(4-Chloropyridin-2-yl)methyl]amino}-7-methoxy-1,3-benzoxazol-5-yl) [5-(fluoromethyl)-2,2-dimethylmorpholin-4-yl]methanone]
IC50 (thrombin [1]): 18 nM
IC50 (thrombin [2]): 17 nM

COc1cc(C(=O)N2CC(C)OCC2(C)C)cc2nc(NCc3cc(Cl)ccn3)oc12 (single isomer, unassigned) [Example 45, (2-{[(4-Chloropyridin-2-yl)methyl]amino}-7-methoxy-1,3-benzoxazol-5-yl)(2,5,5-trimethylmorpholin-4-yl)methanone]
IC50 (thrombin [1]): 24 nM
IC50 (thrombin [2]): 41 nM

COc1cc(C(=O)N2CC(C)OCC2C2CC(O)C2)cc2nc(NCc3cc(Cl)ccn3)oc12 (single isomer, unassigned) [Example 47, (2-{[(4-Chloropyridin-2-yl)methyl]amino}-7-methoxy-1,3-benzoxazol-5-yl) [5-(3-hydroxycyclobutyl)-2-methylmorpholin-4-yl]methanone]
IC50 (thrombin [1]): 11 nM
IC50 (thrombin [2]): 24 nM

COc1cc(C(=O)N2CC(C)OCC2C2CC(O)C2)cc2nc(NCc3cc(Cl)ccn3)oc12 (single isomer, unassigned) [Example 48, (2-{[(4-Chloropyridin-2-yl)methyl]amino}-7-methoxy-1,3-benzoxazol-5-yl) [5-(3-hydroxycyclobutyl)-2-methylmorpholin-4-yl]methanone]
IC50 (thrombin [1]): 11 nM
IC50 (thrombin [2]): 16 nM

COc1cc(C(=O)N2CC(C)OCC2C2CC(O)C2)cc2nc(NCc3cc(Cl)ccn3)oc12 (single isomer, unassigned) [Example 49, (2-{[(4-Chloropyridin-2-yl)methyl]amino}-7-methoxy-1,3-benzoxazol-5-yl) [5-(3-hydroxycyclobutyl)-2-methylmorpholin-4-yl]methanone]
IC50 (thrombin [1]): 24 nM
IC50 (thrombin [2]): 53 nM

COc1cc(C(=O)N2CC(C)OCC2C2CC(O)C2)cc2nc(NCc3cc(Cl)ccn3)oc12 (single isomer, unassigned) [Example 50, (2-{[(4-Chloropyridin-2-yl)methyl]amino}-7-methoxy-1,3-benzoxazol-5-yl) [5-(3-hydroxycyclobutyl)-2-methylmorpholin-4-yl]methanone]
IC50 (thrombin [1]): 12 nM
IC50 (thrombin [2]): 28 nM

COc1cc(C(=O)N2CC(C)OCC2C2CC(O)C2)cc2nc(NCc3cc(Cl)ccn3)oc12 (single isomer, unassigned) [Example 51, (2-{[(4-Chloropyridin-2-yl)methyl]amino}-7-methoxy-1,3-benzoxazol-5-yl) [5-(3-hydroxycyclobutyl)-2-methylmorpholin-4-yl]methanone]
IC50 (thrombin [1]): 8 nM
IC50 (thrombin [2]): 17 nM

COc1cc(C(=O)N2CC(C)OCC2C2CC(O)C2)cc2nc(NCc3cc(Cl)ccn3)oc12 (single isomer, unassigned) [Example 52, (2-{[(4-Chloropyridin-2-yl)methyl]amino}-7-methoxy-1,3-benzoxazol-5-yl) [5-(3-hydroxycyclobutyl)-2-methylmorpholin-4-yl]methanone]
IC50 (thrombin [1]): 28 nM
IC50 (thrombin [2]): 34 nM
